Experimental data taken from the supplement of paper PMC11551840.

Tests used:
Assay in all cases: IC50 (cell viability, 72 h) (ln(µM))
ORL-204 = system: ORL-204
Method: (§1)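 Discovery screen of OSCC cell lines in 1,536-well plates. Cells were treated 24 h after seeding with 7 concentrations spanning a 1,000-fold half-log range for 72 h, and viability was read by CellTiter-Glo 2.0 and normalised to DMSO (1) and medium-only (0) controls. IC50 comes from a two-parameter logistic nonlinear mixed-effects fit and is reported as natural log of IC50 in µM.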

BICR10 = system: BICR10
Method: as §1

SAS = system: SAS
Method: as §1

ORL-166 = system: ORL-166
Method: as §1

ORL-174 = system: ORL-174
Method: as §1

ORL-48 = system: ORL-48
Method: as §1

ORL-207 = system: ORL-207
Method: as §1

ORL-153 = system: ORL-153
Method: as §1

ORL-215 = system: ORL-215
Method: as §1

HSC-2 = system: HSC-2
Method: as §1

HSC-4 = system: HSC-4
Method: as §1

ORL-188 = system: ORL-188
Method: as §1

ORL-156 = system: ORL-156
Method: as §1

SCC-9 = system: SCC-9
Method: as §1

ORL-136 = system: ORL-136
Method: as §1

ORL-214 = system: ORL-214
Method: as §1

ORL-195 = system: ORL-195
Method: as §1

HO-1-u-1 = system: HO-1-u-1
Method: as §1

ORL-115 = system: ORL-115
Method: as §1

ORL-150 = system: ORL-150
Method: as §1

PE-CA-PJ15 = system: PE-CA-PJ15
Method: as §1

Compound | IC50 (ln) (ORL-204) | IC50 (ln) (BICR10) | IC50 (ln) (SAS) | IC50 (ln) (ORL-166) | IC50 (ln) (ORL-174) | IC50 (ln) (ORL-48) | IC50 (ln) (ORL-207) | IC50 (ln) (ORL-153) | IC50 (ln) (ORL-215) | IC50 (ln) (HSC-2) | IC50 (ln) (HSC-4) | IC50 (ln) (ORL-188) | IC50 (ln) (ORL-156) | IC50 (ln) (SCC-9) | IC50 (ln) (ORL-136) | IC50 (ln) (ORL-214) | IC50 (ln) (ORL-195) | IC50 (ln) (HO-1-u-1) | IC50 (ln) (ORL-115) | IC50 (ln) (ORL-150) | IC50 (ln) (PE-CA-PJ15)
CCC1=C[C@@H]2CN(C1)Cc1c([nH]c3ccccc13)[C@@](C(=O)OC)(c1cc3c(cc1OC)N(C)[C@H]1[C@@](O)(C(=O)OC)[C@H](OC(C)=O)[C@]4(CC)C=CCN5CC[C@]31[C@@H]54)C2 [Vinorelbine] | -2.86 | -3.91 | -1.52 | -3.98 | -4 | -4.11 | -4.86 | -4.32 | -4.43 | -4.57 | -1.06 | -4.3 | -4.75 | -2.4 | -0.871 | -3.96 | -3.19 | -2.27 | -3.17 | -4.87 | -2.05
CCc1cnn2c(NCc3ccc[n+]([O-])c3)cc(N3CCCC[C@H]3CCO)nc12 [Dinaciclib] | -3.8 | -2.5 | -4.47 | -4.64 | -4.02 | -3.44 | -3.83 | -3.5 | -4.15 | -4.36 | -3.41 | -4.08 | -4.06 | -1.35 | -2.65 | -4.09 | -3.57 | -3.83 | -4.03 | -3.93 | -3.29
CN(C)C/C=C/C(=O)Nc1ccc(C(=O)Nc2cccc(Nc3ncc(Cl)c(-c4c[nH]c5ccccc45)n3)c2)cc1 [THZ1] | -1.9 | -1.1 | -1.01 | -2.72 | -2.27 | -2.1 | -1.93 | -2.01 | -2.18 | -2.07 | -0.322 | -2.18 | -2.4 | -0.456 | -0.297 | -2.58 | -2.48 | -2.66 | -1.28 | -1.93 | -1.3
Cc1cc(-c2nc(-c3ccc(OC(F)(F)F)cc3)no2)nn1Cc1ccnc(N2CCN(C3CC3)CC2)c1 [BAY-87-2243] | -2.77 | -1.01 | -3.51 | -2.29 | -0.785 | -1.95 | -2.38 | -0.683 | -2.31 | -1.04 | -5.92 | -0.131 | -0.734 | -3.5 | -0.901 | -0.338 | -1.57 | -1.24 | -5.09 | -2.36 | -1.76
CC[C@@H]1C(=O)N(C)c2cnc(Nc3ccc(C(=O)N[C@H]4CC[C@H](N5CCN(CC6CC6)CC5)CC4)cc3OC)nc2N1C(C)C [Volasertib] | -0.0575 | -2.43 | -0.561 | -2.71 | -2.1 | -1.36 | -2.9 | -2.22 | -2.84 | -2.15 | -0.173 | -2.92 | -2.61 | -0.541 | 2.12 | -1.65 | -1.33 | -1.37 | -2.17 | -3.61 | 0.264
CC[C@]1(O)C[C@@H]2CN(CCc3c([nH]c4ccccc34)[C@@](C(=O)OC)(c3cc4c(cc3OC)N(C)[C@H]3[C@@](O)(C(=O)OC)[C@H](OC(C)=O)[C@]5(CC)C=CCN6CC[C@]43[C@@H]65)C2)C1 [Vinblastine] | -1.25 | -5.52 | -2.06 | -5.26 | -3.94 | -4.28 | -6.16 | -5.08 | -6 | -5.8 | 0.489 | -4.52 | -5.51 | -1.75 | -0.44 | -5.86 | -3.12 | 0.0626 | -3.39 | -7.11 | -2.73
CC(C)C[C@H](NC(=O)[C@H](Cc1ccccc1)NC(=O)c1cnccn1)B(O)O [Bortezomib] | -4.52 | -4.95 | -5.88 | -5.43 | -5.44 | -4.47 | -5.3 | -4.84 | -5.32 | -5.55 | -4.5 | -5.03 | -4.46 | -4.18 | -4.79 | -5.37 | -5.04 | -5.69 | -4.36 | -4.88 | -4.28
CC(C)C[C@@H](C=O)NC(=O)[C@H](CC(C)C)NC(=O)[C@H](CC(C)C)NC(=O)OCc1ccccc1 [MG-132] | -1.04 | -0.312 | -1.28 | -1.11 | -1.61 | -1.04 | -1.48 | -1.31 | -1.39 | -1.34 | -0.832 | -1.21 | -0.951 | -0.805 | -1.24 | -1.68 | -1.32 | -1.98 | -0.897 | -0.689 | -0.875
Cc1c2oc3c(C)ccc(C(=O)N[C@@H]4C(=O)N[C@H](C(C)C)C(=O)N5CCC[C@H]5C(=O)N(C)CC(=O)N(C)[C@@H](C(C)C)C(=O)O[C@@H]4C)c3nc-2c(C(=O)N[C@@H]2C(=O)N[C@H](C(C)C)C(=O)N3CCC[C@H]3C(=O)N(C)CC(=O)N(C)[C@@H](C(C)C)C(=O)O[C@@H]2C)c(N)c1=O [Dactinomycin] | -4.99 | -3.88 | -4.65 | -6.04 | -5.84 | -5.43 | -5.32 | -6.27 | -4.6 | -5.7 | -3.96 | -5.69 | -5.7 | -2.9 | -4.38 | -5.57 | -5.67 | -5.18 | -4.09 | -5.32 | -4.55
CN[C@@H]1C[C@H]2O[C@@](C)([C@@H]1OC)n1c3ccccc3c3c4c(c5c6ccccc6n2c5c31)C(=O)NC4 [Staurosporine] | -2.94 | -2.87 | -1.77 | -4.99 | -4.98 | -3.62 | -4.38 | -5.03 | -2.53 | -3.4 | -2.01 | -4.74 | -3.75 | -1.81 | -1.49 | -4.45 | -2.23 | -3.13 | -2.54 | -2.55 | -1.61
CC(=O)O[C@@]12CO[C@@H]1C[C@H](O)[C@@]1(C)C(=O)[C@H](O)C3=C(C)[C@@H](OC(=O)[C@H](O)[C@@H](NC(=O)OC(C)(C)C)c4ccccc4)C[C@@](O)([C@@H](OC(=O)c4ccccc4)[C@H]21)C3(C)C [Docetaxel] | -5.44 | -5.07 | -3.91 | -5.53 | -6.19 | -6.36 | -6.77 | -5.35 | -6.3 | -6.54 | -4.06 | -7 | -4.72 | -3.63 | -2.74 | -6.46 | -5.11 | -4.77 | -4.57 | -6.63 | -3.61
